One block for each compound: values may come before it.
Tests used:
[1] = tested on: ARHGEF2 Ser^151 phosphorylation; experiment: Western blot of ARHGEF2 Ser^151 phosphorylation in treated HEK293T cells; assay type: cell-based; settings: 1mM for 6 hours, normalized with total ARHGEF2, three independent experiments
ARHGEF2 = settings: cited from earlier work; for effect on ARHGEF2 release from microtubules and RHOA activation: disruption of polymerized microtubules; for effect on ARHGEF2 activation: GPCR ligands
14-3-3 = biological target: T1, 14-3-3 (Mus musculus, UniProt P63101); experiment: Microscale thermophoresis; assay type: binding, murine; settings: MST; peptides at 100 nM; GST-14-3-3 serial dilutions 195 μM to 2 nM; 20 mM HEPES pH 7.4, 150 mM NaCl, 1 mM DTT, 0.05 % Tween20; three independent experiments
T1 sequence (P63101 1-245): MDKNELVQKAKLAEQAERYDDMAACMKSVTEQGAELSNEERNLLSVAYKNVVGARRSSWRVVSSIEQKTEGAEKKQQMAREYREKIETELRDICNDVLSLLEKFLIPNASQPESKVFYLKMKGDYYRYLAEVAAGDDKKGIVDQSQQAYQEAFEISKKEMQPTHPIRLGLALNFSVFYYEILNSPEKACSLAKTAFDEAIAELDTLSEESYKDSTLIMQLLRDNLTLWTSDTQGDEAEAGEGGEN

Compound: NC(=O)c1ncn([C@@H]2O[C@H](COP(=O)(O)O)[C@@H](O)[C@H]2O)c1N [5-Aminoimidazole-4-carboxamide ribonucleotide]
ARHGEF2 Ser^151 phosphorylation [1]: no apparent change in phosphorylation of this residue was observed

Compound: COc1cc2c(c(OC)c1OC)-c1ccc(OC)c(=O)cc1[C@@H](NC(C)=O)CC2 [Colchicine]
effect on ARHGEF2 release from microtubules and RHOA activation (ARHGEF2): release ARHGEF2 and lead to potent activation of RHOA

Compound: COC(=O)Nc1nc2ccc(C(=O)c3cccs3)cc2[nH]1 [Nocodazol]
effect on ARHGEF2 release from microtubules and RHOA activation (ARHGEF2): release ARHGEF2 and lead to potent activation of RHOA

Compound: CC(=O)O[C@H]1C(=O)[C@@]2(C)[C@H]([C@H](OC(=O)c3ccccc3)[C@]3(O)C[C@H](OC(=O)[C@H](O)[C@@H](NC(=O)c4ccccc4)c4ccccc4)C(C)=C1C3(C)C)[C@]1(OC(C)=O)CO[C@@H]1C[C@@H]2O [Paclitaxel]
effect on ARHGEF2 release from microtubules and RHOA activation (ARHGEF2): an effect that can be reversed by the microtubule stabilizing drug Paclitaxel

binding to 14-3-3 (in words) (14-3-3): no binding was detected
Compound: RRPLDPRRR[(p)Ser885]LPAGDA[Lys(FITC)]

binding to 14-3-3 (in words) (14-3-3): no binding was detected
Compound: SSLSLAKSV[(p)Ser^151]TTNIAG[Lys(FITC)]

Compound: lysophosphatidic acid
effect on ARHGEF2 activation (ARHGEF2): trigger activation of ARHGEF2

Compound: thrombin
effect on ARHGEF2 activation (ARHGEF2): trigger activation of ARHGEF2

Source: PMC6504561 (Science signaling, 2017)
